# Results as given in patent US7968548B2, “Melanocortin receptor-specific piperazine compounds with diamine groups” (Palatin Technologies, Inc., priority 2005, dated 2011).
# How the values were obtained:
# MC1-R = biological target: T1, MC1-R (Mus musculus, UniProt Q01727); test: Competitive inhibition binding assay using [I125]-NDP-α-MSH, B-16 mouse melanoma cell membranes; conditions: B-16 mouse melanoma cells; for inhibition at 1 µM: 1 μM compound
# T1 construct: from B-16 mouse melanoma cells (containing endogenous MC1-R); endogenous in cells; host or cells: B-16 mouse melanoma cells (membrane homogenates)
# T1 sequence (Q01727 whole entry): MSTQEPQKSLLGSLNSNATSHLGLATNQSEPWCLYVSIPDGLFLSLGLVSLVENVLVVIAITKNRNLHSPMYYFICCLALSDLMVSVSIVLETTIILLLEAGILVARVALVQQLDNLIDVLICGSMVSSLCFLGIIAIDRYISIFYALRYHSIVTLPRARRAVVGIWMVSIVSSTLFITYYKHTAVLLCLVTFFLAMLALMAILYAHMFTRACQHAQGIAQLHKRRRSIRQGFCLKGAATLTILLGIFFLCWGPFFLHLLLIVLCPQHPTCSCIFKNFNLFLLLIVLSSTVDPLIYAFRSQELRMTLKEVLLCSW
# Method: (§1) A competitive inhibition binding assay was performed using membrane homogenates prepared from HEK-293 cells that express recombinant hMC4-R, hMC3-R, or hMC5-R, and from B-16 mouse melanoma cells (containing endogenous MC1-R). In some instances, HEK-293 cells that express recombinant hMC1-R were employed. In the examples that follow, all MC3-R, MC4-R and MC5-R values are for human recombinant receptors. MC1-R values are for B-16 mouse melanoma cells, unless the heading is “hMC1-R”, in which case the value is for human recombinant MC1-R. Assays were performed in 96 well GF/B Millipore multiscreen filtration plates (MAFB NOB10) pre-coated with 0.5% bovine serum albumin (Fraction V). […] After incubation for 60 minutes at 37° C., the assay mixture was filtered and the membranes washed three times with ice-cold buffer. Filters were dried and counted in a gamma counter for bound radioactivity. […] Maximal specific binding (100%) was defined as the difference in radioactivity (cpm) bound to cell membranes in the absence and presence of 1 μM NDP-α-MSH. […] Each assay was conducted in triplicate and the actual mean values are described, with results less than 0% reported as 0%. Ki values for test compounds were determined using Graph-Pad Prism® curve-fitting software.
# MC3-R = biological target: T2, MC3-R (Homo sapiens, UniProt P41968); test: Competitive inhibition binding assay using [I125]-NDP-α-MSH, HEK-293 membranes, recombinant hMC3-R; conditions: for inhibition at 1 µM: 1 μM compound
# T2 construct: expressed in transfected cells; host or cells: HEK-293
# T2 sequence (P41968 whole entry): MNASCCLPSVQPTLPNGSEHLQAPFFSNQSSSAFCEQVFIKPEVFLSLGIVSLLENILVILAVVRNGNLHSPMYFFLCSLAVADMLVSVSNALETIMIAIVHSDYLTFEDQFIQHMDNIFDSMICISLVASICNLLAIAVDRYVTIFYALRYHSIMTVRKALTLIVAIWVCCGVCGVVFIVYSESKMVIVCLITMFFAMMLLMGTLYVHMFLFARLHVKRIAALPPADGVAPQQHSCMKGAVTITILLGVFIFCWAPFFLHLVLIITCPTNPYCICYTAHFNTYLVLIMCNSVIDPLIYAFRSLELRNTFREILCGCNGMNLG
# Method: as §1
# MC5-R = biological target: T3, MC5-R (Homo sapiens, UniProt P33032); test: Competitive inhibition binding assay using [I125]-NDP-α-MSH, HEK-293 membranes, recombinant hMC5-R; conditions: for inhibition at 1 µM: 1 μM compound
# T3 construct: expressed in transfected cells; host or cells: HEK-293
# T3 sequence (P33032 whole entry): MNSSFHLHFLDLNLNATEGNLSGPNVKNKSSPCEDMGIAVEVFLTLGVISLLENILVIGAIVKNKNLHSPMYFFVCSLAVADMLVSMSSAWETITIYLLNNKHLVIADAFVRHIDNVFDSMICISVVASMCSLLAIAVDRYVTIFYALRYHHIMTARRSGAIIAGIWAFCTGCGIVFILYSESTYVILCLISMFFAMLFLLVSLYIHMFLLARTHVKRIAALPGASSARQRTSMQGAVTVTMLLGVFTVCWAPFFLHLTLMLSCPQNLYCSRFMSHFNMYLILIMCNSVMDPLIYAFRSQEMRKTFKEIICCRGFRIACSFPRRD
# Method: as §1
# MC4-R = MC4-R (Homo sapiens, UniProt P32245); test: Competitive inhibition binding assay using [I125]-NDP-α-MSH, HEK-293 membranes, recombinant hMC4-R; parameters: expressed in transfected cells; host or cells: HEK-293; conditions: for inhibition at 1 µM: 1 μM compound
# MC4-R, sequence (P32245 whole entry): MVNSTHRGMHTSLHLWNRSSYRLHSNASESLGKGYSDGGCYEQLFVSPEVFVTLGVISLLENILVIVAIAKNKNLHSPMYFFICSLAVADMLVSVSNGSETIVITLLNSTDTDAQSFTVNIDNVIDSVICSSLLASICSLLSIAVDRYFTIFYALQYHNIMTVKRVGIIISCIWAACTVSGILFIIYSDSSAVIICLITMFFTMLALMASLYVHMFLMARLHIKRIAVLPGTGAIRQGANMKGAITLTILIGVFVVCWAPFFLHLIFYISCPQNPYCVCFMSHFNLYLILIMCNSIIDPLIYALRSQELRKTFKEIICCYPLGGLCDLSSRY
# Method: as §1
# hMC1-R = biological target: T4, hMC1-R (Homo sapiens, UniProt Q01726); test: Competitive inhibition binding assay using [I125]-NDP-α-MSH, HEK-293 membranes, recombinant hMC1-R; conditions: human recombinant MC1-R; for inhibition at 1 µM: 1 μM compound
# T4 construct: expressed in transfected cells; host or cells: HEK-293
# T4 sequence (Q01726 whole entry): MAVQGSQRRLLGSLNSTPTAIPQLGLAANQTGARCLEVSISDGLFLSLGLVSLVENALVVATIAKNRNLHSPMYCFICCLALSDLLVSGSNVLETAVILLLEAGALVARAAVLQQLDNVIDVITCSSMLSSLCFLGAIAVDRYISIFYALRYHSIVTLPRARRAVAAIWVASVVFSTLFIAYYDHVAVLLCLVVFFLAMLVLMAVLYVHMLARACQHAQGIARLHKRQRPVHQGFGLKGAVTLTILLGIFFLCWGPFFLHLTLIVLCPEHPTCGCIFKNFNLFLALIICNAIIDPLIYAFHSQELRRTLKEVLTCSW
# Method: as §1
# [1] = Mouse model IN feeding studies (body weight); format: in vivo; conditions: 20 hours
# Method: Food intake and body weight after IN and IP dosing. Changes in food intake and body weight were evaluated for selected compounds. Male C57BL/6 mice were obtained from Jackson labs (Bar Harbor, Me.). Animals were individually housed in conventional plexiglass hanging cages and maintained on a controlled 12 hour on/off light cycle. Water and pelleted (Harlan Teklad 2018 18% Protein Rodent Diet) food was provided ad libitum. The mice were dosed IP (by intraperitoneal injection) after a 24 hour fast or IN (by intranasal administration) with vehicle or selected compounds (0.1-3 mg/kg, and in some cases up to 10 mg/kg). All animals were dosed once a day (or up to four consecutive days) at the start of the “lights off” period. The changes in food intake for the 4 hour and 20 hour period after dosing relative to control animals administered vehicle were determined. Body weights were determine 4 hours prior to dosing and 20 hours after dosing, and the change in body weight relative to control animals administered vehicle were determined.
inhibition at 1 µM (MC1-R) [%],Ki (MC3-R) [nM],inhibition at 1 µM (MC3-R) [%],Ki (MC5-R) [nM],inhibition at 1 µM (MC5-R) [%],Ki (MC4-R) [nM],inhibition at 1 µM (MC4-R) [%],inhibition at 1 µM (hMC1-R) [%],Ki (hMC1-R) [nM],SMILES,Ki (MC1-R) [nM],average decrease in body weight compared to control animals ([1]; 0.1 mg/kg) [%],average decrease in body weight compared to control animals ([1]; 0.3 mg/kg) [%],average decrease in body weight compared to control animals ([1]; 1 mg/kg) [%]
26,–,28,–,48,–,52,–,–,Cc1ccc(C[C@H](CN2C[C@@H](C)N(C(=O)Cc3ccc4ccccc4c3)C[C@@H]2CCCN(C)C2CCCCC2N(C)C)N(C)C)c(C)c1 (stereo partly shown) [Example 8],–,–,–,–
–,574,41,–,55,44,89,23,309,"CC(C)C[C@@H]1CN(C(=O)[C@H](N)Cc2ccc(Cl)cc2Cl)[C@@H](CCCNCCN)CN1C(=O)[C@H](N)Cc1ccc(Cl)cc1Cl [Example 12, (R)-2-Amino-1-{(2R,5S)-4-[(R)-2-amino-3-(2,4-dichloro-phenyl)-propionyl]-5-[3-(2-amino-ethylamino)-propyl]-2-isobutyl-piperazin-1-yl}-3-(2,4-dichloro-phenyl)-propan-1-one]",–,0.7,3.1,–
4,–,0,–,44,–,56,–,–,"Cc1ccc(C[C@H](CN2C[C@@H](C)N(C(=O)Cc3ccc4ccccc4c3)C[C@@H]2CCCN(C)C2CCN(C)C2)N(C)C)c(C)c1 (stereo partly drawn) [Example 7, 1-((2R,5S)-4-[(R)-2-Dimethylamino-3-(2,4-dimethyl-phenyl)-propyl]-2-methyl-5-{3-[methyl-(1-methyl-pyrrolidin-3-yl)-amino]-propyl}-piperazin-1-yl)-2-aphthalen-2-yl-ethanone]",–,–,–,–
0,–,9,–,51,–,49,–,–,"Cc1ccc(C[C@H](CN2C[C@@H](C)N(C(=O)Cc3ccc4ccccc4c3)C[C@@H]2CCCN(C)CCN(C)C)N(C)C)c(C)c1 [Example 9, 1-((2R,5S)-4-[(R)-2-Dimethylamino-3-(2,4-dimethyl-phenyl)-propyl]-5-{3-[(2-dimethylamino-ethyl)-methyl-amino]-propyl}-2-methyl-piperazin-1-yl)-2-naphthalen-2-yl-ethaone]",–,–,–,–
–,435,–,103,–,20,–,–,153,"NCCNCCCC[C@H]1CN(C(=O)[C@H](N)Cc2ccc3ccccc3c2)[C@H](CC2CCCCC2)CN1C(=O)[C@H](N)Cc1ccc2ccccc2c1 [Example 23, (R)-2-Amino-1-[(2R,5S)-5-[4-(2-amino-ethylamino)-butyl]-4-((R)-2-amino-3-naphthalen-2-yl-propionyl)-2-cyclohexylmethyl-piperazin-1-yl]-3-naphthalen-2-yl-propan-1-one]",–,1.6,2.6,–

# Further lines, the compound ahead of its results:
SMILES,inhibition at 1 µM (MC1-R) [%],Ki (MC3-R) [nM],inhibition at 1 µM (MC3-R) [%],Ki (MC5-R) [nM],inhibition at 1 µM (MC5-R) [%],Ki (MC4-R) [nM],inhibition at 1 µM (MC4-R) [%],inhibition at 1 µM (hMC1-R) [%],Ki (hMC1-R) [nM],Ki (MC1-R) [nM],average decrease in body weight compared to control animals ([1]; 0.1 mg/kg) [%],average decrease in body weight compared to control animals ([1]; 0.3 mg/kg) [%],average decrease in body weight compared to control animals ([1]; 1 mg/kg) [%]
"Cc1ccc(C[C@@H](N)CN2C[C@@H](C)N(C(=O)Cc3ccc4ccccc4c3)C[C@@H]2CCCNC2CCCCC2N)c(C)c1 (stereo partly drawn) [Example 6, 1-{(2R,5S)-5-[3-(2-Amino-cyclohexylamino)-propyl]-4-[(R)-2-amino-3-(2,4-dimethyl-phenyl)-propyl]-2-methyl-piperazin-1-yl}-2-naphthalen-2-yl-ethanone]",33,535,47,38,98,255,88,–,–,580,–,–,–
Cc1ccc(C[C@@H](N)CN2C[C@@H](C)N(C(=O)Cc3ccc4ccccc4c3)C[C@@H]2CCCNCCN)c(C)c1 [Example 3],41,320,82,20,94,160,92,–,–,660,–,–,–
"CC(C)C[C@@H]1CN(C(=O)[C@H](N)Cc2ccc3ccccc3c2)[C@@H](CCCCNCCN)CN1C(=O)[C@H](N)Cc1ccc2ccccc2c1 [Example 20, (R)-2-Amino-1-[(2R,5S)-5[4-(2-amino-ethylamino)-butyl]-4-((R)-2-amino-3-naphthalen-2-yl-propionyl)-2-isobutyl-piperazin-1-yl]-3-naphthalen-2-yl-propan-1-one]",–,321,62,253,49,9,99,68,215,–,1.2,3,–
"Cc1ccc(C[C@@H](N)CN2C[C@@H](C)N(C(=O)Cc3ccc4ccccc4c3)C[C@@H]2CCCNC2CCNC2)c(C)c1 (stereo partly drawn) [Example 5, 1-{(2R,5S)-4-[(R)-2-Amino-3-(2,4-dimethyl-phenyl)-propyl]-2-methyl-5-[3-(pyrrolidin-3-ylamino)-propyl]-piperazin-1-yl}-2-naphthalen-2-yl-ethanone]",41,395,75,31,96,387,81,–,–,685,–,–,–
"CC(C)C[C@@H]1CN(C[C@@H](Cc2ccc(Cl)cc2Cl)N(C)C)[C@@H](CCCN(C)CCN)CN1C(=O)Cc1ccc2ccccc2c1 [Example 32, 1-{(2R,5S)-5-{3-[(2-Amino-ethyl)-methyl-amino]-propyl}-4-[(R)-3-(2,4-dichloro-phenyl)-2-dimethylamino-propyl]-2-isobutyl-piperazin-1-yl}-2-naphthalen-2-yl-ethanone]",–,–,43,–,65,–,91,25,–,–,–,–,–
"CC(C)C[C@@H]1CN(C(=O)[C@H](N)Cc2ccc(Cl)c(Cl)c2)[C@@H](CCCCNCCN)CN1C(=O)[C@H](N)Cc1ccc(Cl)c(Cl)c1 [Example 22, (R)-2-Amino-1-{(2R,5S)-4-[(R)-2-amino-3-(3,4-dichloro-phenyl)-propionyl]-5-[4-(2-amino-ethylamino)-butyl]-2-isobutyl-piperazin-1-yl}-3-(3,4-dichloro-phenyl)-propan-1-one]",–,69,–,179,–,4,–,–,116,–,0.6,4.9,–
"CC(C)C[C@@H]1CN(C(=O)[C@H](N)Cc2ccc3ccccc3c2)[C@@H](CCCNCCN)CN1C(=O)[C@H](N)Cc1ccc2ccccc2c1 [Example 13, (R)-2-Amino-1-[(2R,5S)-5-[3-(2-amino-ethylamino)-propyl]-4-((R)-2-amino-3-naphthalen-2-yl-propionyl)-2-isobutyl-piperazin-1-yl]-3-naphthalen-2-yl-propan-1-one]",–,127,79,–,57,13,96,40,135,–,1,3,3.2
"Cc1ccc(C[C@@H](N)C(=O)N2C[C@H](CCCCNCCN)N(C(=O)[C@H](N)Cc3ccc(C)cc3C)C[C@H]2CC(C)C)c(C)c1 [Example 21, (R)-2-Amino-1-{(2R,5S)-4-[(R)-2-amino-3-(2,4-dimethyl-phenyl)-propionyl]-5[4-(2-amino-ethylamino)-butyl]-2-isobutyl-piperazin-1-yl}-3-(2,4-dimethyl-phenyl)-propan-1-one]",–,1050,55,450,51,83,95,39,567,–,–,–,–
"C[C@@H]1CN(C(=O)[C@H](N)Cc2ccc3ccccc3c2)[C@@H](CCCNCCN)CN1C(=O)[C@H](N)Cc1ccc2ccccc2c1 [Example 27, (R)-2-Amino-1-[(2R,5S)-5-[3-(2-amino-ethylamino)-propyl]-4-((R)-2-amino-3-naphthalen-2-yl-propionyl)-2-methyl-piperazin-1-yl]-3-naphthalen-2-yl-propan-1-one]",–,–,79,–,73,42,93,62,–,–,–,–,–
